# Active and inactive are the calls of the source. The rule behind the calls is not given here.
# Key:
# [1] = Antioxidant activity assessed as ABTS radical scavenging activity incubated in dark for 6 mins by absorbance based microplate reader analysis; format: functional
# [2] = Antioxidant activity assessed as trolox equivalent of ORAC radical scavenging activity at 4 uM; format: functional
# [3] = Antioxidant activity assessed as trolox equivalent of ORAC radical scavenging activity at 8 uM; format: functional
# [4] = system: HT-22; assay: Anti-ferroptotic activity against Erastin-induced ferroptosis in mouse HT-22 cells assessed as inhibition of LPO accumulation at 0.2 uM measured after 24 hrs by BODIPY-C11 based flow cytometry analysis relative to control; format: functional; parameters: scale not given: the % may be the effect or the level left
# [5] = system: HT-22; assay: Anti-ferroptotic activity in erastin-induced ferroptosis in mouse HT-22 cells assessed as cell viability incubated for 24 hrs by MTT assay; format: functional, cell-based; settings: HT-22, 24 h
# [6] = system: HT-22; assay: Anti-ferroptotic activity against Erastin-induced ferroptosis in mouse HT-22 cells assessed as reduction in LIP level by measuring fluorescence intensity measured after 24 hrs by FeRhoNox-1 based flow cytometry analysis; format: functional, cell-based; settings: dose 20-100 µM
# [7] = system: HEK-293T; assay: Protection against cisplatin-induced cytotoxicity in HEK293T cells assessed as cell viability measured after 24 to 48 hrs by MTT assay; format: functional, cell-based; settings: Homo sapiens
# [8] = Log K1 of the compound in 0.1M KCl at pH 0.9 to 2.1 by UV absorption method; format: physicochemical
# [9] = Log K3 of the compound in 0.1M KCl at pH 2.0 to 10.5 by UV absorption method; format: physicochemical
# [10] = Metal chelating activity assessed as Fe3+ chelation
# [11] = Acid dissociation constant, pKa1 of the compound in 0.1M KCl at pH 2.0 to 10.5 by UV absorption method; format: physicochemical
# [12] = Acid dissociation constant, pKa2 of the compound in 0.1M KCl at pH 2.0 to 10.5 by UV absorption method; format: physicochemical
# [13] = Log K2 of the compound in 0.1M KCl at pH 2.0 to 10.5 by UV absorption method; format: physicochemical
# [14] = Acid dissociation constant, pKa3 of the compound in 0.1M KCl at pH 2.0 to 10.5 by UV absorption method; format: physicochemical
# [15] = system: HT-22; assay: Cytotoxicity against mouse HT-22 cells assessed as reduction in cell viability at 150 uM by MTT assay relative to control; format: toxicity, cell-based; settings: ht-22, 150 µM
# [16] = system: HT-22; assay: Anti-ferroptotic activity against Erastin-induced ferroptosis in mouse HT-22 cells assessed as reduction in ROS accumulation at 100 uM measured after 24 hrs by DCFH-DA based flow cytometry analysis relative to control; format: functional; parameters: scale not given: the % may be the effect or the level left
# [17] = MRT (0 to infinity) in rat at 5 mg/kg, iv measured upto 24 hrs by UPLC-MS analysis; format: ADME, organism-based; settings: in vivo
# [18] = Oral bioavailability in rat at 15 mg/kg, IG measured upto 24 hrs by UPLC-MS analysis; format: ADME, organism-based; settings: in vivo
# [19] = Tmax in rat at 15 mg/kg, IG measured upto 24 hrs by UPLC-MS analysis; format: ADME, organism-based; settings: in vivo, po
# [20] = Half life in rat at 5 mg/kg, iv measured upto 24 hrs by UPLC-MS analysis; format: ADME, organism-based; settings: in vivo
# [21] = Clearance in rat at 15 mg/kg, IG measured upto 24 hrs by UPLC-MS analysis; format: ADME, organism-based; settings: in vivo, po
# [22] = Clearance in rat at 5 mg/kg, iv measured upto 24 hrs by UPLC-MS analysis; format: ADME, organism-based; settings: in vivo
# [23] = Volume of distribution at steady state in rat at 5 mg/kg, iv measured upto 24 hrs by UPLC-MS analysis; format: ADME, organism-based; settings: in vivo, read-out: Vdss
# [24] = Cmax in rat at 5 mg/kg, iv measured upto 24 hrs by UPLC-MS analysis; format: ADME, organism-based; settings: in vivo
# [25] = AUC (0 to t) in rat at 5 mg/kg, iv measured upto 24 hrs by UPLC-MS analysis; format: ADME, organism-based; settings: in vivo
# [26] = system: HT-22; assay: Anti-ferroptotic activity against Erastin-induced ferroptosis in mouse HT-22 cells assessed as reduction in ROS accumulation measured after 24 hrs by DCFH-DA based flow cytometry analysis; format: functional, cell-based; settings: dose 20-100 µM
# [27] = system: HT-22; assay: Anti-ferroptotic activity against Erastin-induced ferroptosis in mouse HT-22 cells assessed as reduction in LPO accumulation measured after 24 hrs by BODIPY-C11 based flow cytometry analysis; format: functional, cell-based; settings: dose 20-100 µM
# [28] = Tmax in rat at 5 mg/kg, iv measured upto 24 hrs by UPLC-MS analysis; format: ADME, organism-based; settings: in vivo
# [29] = system: HEK-293T; assay: Protection against cisplatin-induced cytotoxicity in HEK293T cells assessed as reduction in ROS accumulation at 50 uM measured after 24 hrs by DCFH-DA based flow cytometry analysis; format: functional, cell-based; settings: Homo sapiens
# [30] = Half life in rat at 15 mg/kg, IG measured upto 24 hrs by UPLC-MS analysis; format: ADME, organism-based; settings: in vivo, po
# [31] = MRT (0 to infinity) in rat at 15 mg/kg, IG measured upto 24 hrs by UPLC-MS analysis; format: ADME, organism-based; settings: in vivo, po
# [32] = AUC (0 to infinity) in rat at 5 mg/kg, iv measured upto 24 hrs by UPLC-MS analysis; format: ADME, organism-based; settings: in vivo
# [33] = AUC (0 to infinity) in rat at 15 mg/kg, IG measured upto 24 hrs by UPLC-MS analysis; format: ADME, organism-based; settings: in vivo, po
# [34] = Volume of distribution at steady state in rat at 15 mg/kg, IG measured upto 24 hrs by UPLC-MS analysis; format: ADME, organism-based; settings: in vivo, po
# [35] = AUC (0 to t) in rat at 15 mg/kg, IG measured upto 24 hrs by UPLC-MS analysis; format: ADME, organism-based; settings: in vivo, po
# [36] = Cmax in rat at 15 mg/kg, IG measured upto 24 hrs by UPLC-MS analysis; format: ADME, organism-based; settings: in vivo, po
# [37] = system: HEK-293T; assay: Protection against cisplatin-induced cytotoxicity in HEK293T cells assessed as reduction in LPO accumulation at 50 uM measured after 24 hrs by BODIPY-C11 based flow cytometry analysis; format: functional, cell-based; settings: Homo sapiens
# [38] = system: HEK-293T; assay: Protection against cisplatin-induced cytotoxicity in HEK293T cells assessed as reduction in attenuation of intracellular Fe2+ at 30 to 80 uM measured after 24 hrs by FeRhoNox-1 based flow cytometry analysis; format: functional, cell-based; settings: Homo sapiens, dose 30-80 µM
# [39] = system: L02; assay: Cytotoxicity against human L02 cells assessed as reduction in cell viability at upto 100 uM by MTT assay; format: toxicity, cell-based; settings: l02, 100 µM
smiles,measurement,setting,value
CCOC(=O)c1ccc(NC2CCCCC2)c(N)c1,IC50,[1],6.27 µM
same,Activity,[2],6.53
same,Activity,[3],9.43
same,Activity,[4],100%
same,EC50,[5],0.191 µM
same,Activity,[6],inactive
same,EC50,[7],5.69 µM
Cc1c(O)c(=O)ccn1NC(=O)/C=C/c1ccc(F)cc1,log(activity),[8],14.3
same,IC50,[1],4.97 µM
same,log(activity),[9],35.77
same,Activity,[10],17.8
same,Activity,[2],22.8
same,pKa,[11],2.64
same,Activity,[3],34.1
same,pKa,[12],7.15
same,log(activity),[13],26.34
same,EC50,[5],17.4 µM
same,pKa,[14],10.2
same,Activity,[15],> 80%
Cc1c(O)c(=O)ccn1NC(=O)/C=C/c1cccc(Cl)c1,log(activity),[8],14.03
same,Activity,[16],100%
same,IC50,[1],4.9 µM
same,log(activity),[9],35.28
same,Activity,[10],17.8
same,Activity,[2],3.27
same,pKa,[11],2.52
same,Activity,[3],6.52
same,pKa,[12],6.66
same,log(activity),[13],26.16
same,pKa,[14],10.1
Cc1c(O)c(=O)ccn1NC(=O)/C=C/c1ccccc1F,log(activity),[8],14.34
same,IC50,[1],4.38 µM
same,log(activity),[9],35.75
same,Activity,[10],17.6
same,Activity,[2],18.1
same,pKa,[11],2.4
same,Activity,[3],24.9
same,pKa,[12],6.74
same,log(activity),[13],26.41
same,EC50,[5],25.8 µM
same,pKa,[14],10.3
same,Activity,[15],> 80%
Cc1c(O)c(=O)ccn1NC(=O)/C=C/c1cccc(F)c1,MRT inf,[17],2.34 h
same,bioavailability,[18],8.06%
same,Tmax,[19],0.19 h
same,half-life,[20],3.74 h
same,CL,[21],2.33 mL/min/kg
same,log(activity),[8],14.67
same,CL,[22],0.33 mL/min/kg
same,Vd,[23],0.07 L/kg
same,Cmax,[24],472 ng/mL
same,AUC(0-t) at 24 h,[25],364 ng·h/mL
same,Activity,[26],Dose-Dependent Effect
same,Activity,[27],Dose-Dependent Effect
same,Tmax,[28],8.4 min
same,IC50,[1],4.35 µM
same,log(activity),[9],36.22
same,Activity,[29],Active
same,Activity,[10],18.6
same,Activity,[2],23.8
same,pKa,[11],2.32
same,Activity,[3],36
same,half-life,[30],5.83 h
same,MRT inf,[31],8.22 h
same,AUC,[32],365.99 ng·h/mL
same,AUC,[33],136.25 ng·h/mL
same,pKa,[12],6.78
same,log(activity),[13],26.56
same,EC50,[5],14.9 µM
same,Vdss,[34],1.42 L/kg
same,pKa,[14],10.1
same,Activity,[6],Dose-Dependent Effect
same,AUC(0-t) at 24 h,[35],120 ng·h/mL
same,Activity,[15],> 80%
same,EC50,[7],24.9 µM
same,Cmax,[36],24.1 ng/mL
same,Activity,[37],Active
same,Activity,[38],Active
Cc1c(O)c(=O)ccn1C [DEFERIPRONE],log(activity),[8],14.12
same,IC50,[1],9.7 µM
same,log(activity),[9],34.97
same,Activity,[10],17.9
same,Activity,[2],4.73
same,Activity,[3],9.19
same,Activity,[39],Non-Toxic
same,pKa,[12],9.93
same,log(activity),[13],25.8
same,EC50,[5],165 µM
same,Activity,[15],> 80%
same,EC50,[7],40 µM
same,Activity,[38],Active
COc1cccc(/C=C/C(=O)Nn2ccc(=O)c(O)c2C)c1,log(activity),[8],14.2
same,IC50,[1],4.78 µM
same,log(activity),[9],35.64
same,Activity,[10],17.8
same,Activity,[2],8.99
same,pKa,[11],2.4
same,Activity,[3],16.1
same,pKa,[12],6.99
same,log(activity),[13],26.72
same,EC50,[5],26.2 µM
same,pKa,[14],10.2
same,Activity,[15],> 80%

# Reference: ChEMBL document CHEMBL5537117, “Novel 3-hydroxypyridin-4(1H)-One derivatives as ferroptosis inhibitors with iron-chelating and reactive oxygen species scavenging activities and therapeutic effect in cisplatin-induced cytotoxicity” (Eur J Med Chem, 2024)
